This is an account of results in publication PMC3461998 (Angewandte Chemie (International ed. in English), 2012).

Broadly, the Kd is the free concentration of one partner at which half of the binding sites on the other are occupied at equilibrium, for simple one-to-one binding.

Assay [1] concerns the target T1, cholera toxin B subunit (CTB) (Vibrio cholerae serotype O1, UniProt P01556). Nature of the assay: biochemical. It counts as binding.
The target of assay [2] is T2, tetanus toxin C fragment (TTC) (Clostridium tetani, UniProt P04958). The assay can be described thus: biochemical. Type of assay: binding.
For assay [3], the target named is T2, tetanus toxin C fragment (TTC). Conditions: read-out: KD Reported; cited from earlier work.
Another assay deals with Concanavalin A (Canavalia ensiformis, UniProt P02866). The settings on record: read-out: KD Reported; cited from earlier work.
The target in assay [4] is T1, cholera toxin B subunit (CTB). Conditions: read-out: KD Reported; cited from earlier work.
The target of another assay is mouse IgG (mouse). Nature of the assay: magnetic relaxation.
In another assay the target is avidin (Gallus gallus, UniProt P02701). The assay can be described thus: bMR nanosensor competition assay, avidin-biotin. It counts as binding. Conditions: control study with avidin bMR nanosensors.

Like-named read-outs stand apart in the source and are kept apart here.

T2 sequence (P04958 865-1315 limits assumed): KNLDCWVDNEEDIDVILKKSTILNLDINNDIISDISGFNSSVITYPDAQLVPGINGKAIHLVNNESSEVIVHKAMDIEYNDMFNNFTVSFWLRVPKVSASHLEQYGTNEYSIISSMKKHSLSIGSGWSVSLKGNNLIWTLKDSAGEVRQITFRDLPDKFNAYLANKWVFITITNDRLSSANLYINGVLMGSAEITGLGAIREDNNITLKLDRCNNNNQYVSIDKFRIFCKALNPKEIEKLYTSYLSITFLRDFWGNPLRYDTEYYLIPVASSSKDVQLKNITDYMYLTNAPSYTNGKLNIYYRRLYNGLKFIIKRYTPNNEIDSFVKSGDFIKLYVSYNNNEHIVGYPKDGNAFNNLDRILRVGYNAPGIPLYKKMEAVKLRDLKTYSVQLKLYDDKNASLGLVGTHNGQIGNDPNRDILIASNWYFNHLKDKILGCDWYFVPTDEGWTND
T1 sequence (P01556 22-124 limits assumed): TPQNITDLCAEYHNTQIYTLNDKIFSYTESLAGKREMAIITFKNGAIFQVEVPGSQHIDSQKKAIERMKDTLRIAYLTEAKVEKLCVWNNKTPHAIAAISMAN
avidin, sequence (P02701 25-152, species assumed): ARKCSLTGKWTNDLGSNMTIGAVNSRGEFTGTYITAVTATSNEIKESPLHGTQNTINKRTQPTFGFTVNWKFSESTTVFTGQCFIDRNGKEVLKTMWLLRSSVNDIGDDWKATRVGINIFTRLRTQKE

`O=C[C@H](O)[C@@H](O)[C@@H](O)[C@H](O)CO` [Galactose, galactose]: the dissociation constant (Kd) in assay [1] stood at 3.5 µM.

As for `COc1cccc2c1C(=O)c1c(O)c3c(c(O)c1C2=O)C[C@@](O)(C(=O)CO)C[C@@H]3O[C@H]1C[C@H](N)[C@H](O)[C@H](C)O1` [Doxorubicin, doxorubicin], the equilibrium dissociation constant (Kd) in assay [2] is 4.1 µM; in assay [3], 9.4 µM.

In assay [2], `O=C(O)c1cc(O)c2c(c1)C(=O)c1cccc(O)c1C2=O` [Rhein, rhein] returned a Kd of 33.6 µM.

Take dextran: the Kd is 4.9 µM in assay [1], 0.09 µM on Concanavalin A and 14000 µM in assay [4].

“Protein G (from UniProt P06654 34-417) (natural protein)” yielded a Kd in the assay with mouse IgG (mouse) of 0.4 pM.

bovine serum albumin: the “changes in magnetic relaxation” value with avidin was “nominal changes”.

As for `OC[C@H]1O[C@@H]2O[C@H]3[C@H](O)[C@@H](O)[C@@H](O[C@H]4[C@H](O)[C@@H](O)[C@@H](O[C@H]5[C@H](O)[C@@H](O)[C@@H](O[C@H]6[C@H](O)[C@@H](O)[C@@H](O[C@H]7[C@H](O)[C@@H](O)[C@@H](O[C@H]8[C@H](O)[C@@H](O)[C@@H](O[C@H]1[C@H](O)[C@H]2O)O[C@@H]8CO)O[C@@H]7CO)O[C@@H]6CO)O[C@@H]5CO)O[C@@H]4CO)O[C@@H]3CO` [β-Cyclodextrin, β-cyclodextrin], the Kd in assay [1] was found to be 3.6 µM.

Turning to `OC[C@H]1OC(O)[C@H](O)[C@@H](O)[C@@H]1O` (stereo partly drawn) [Glucose, glucose], in assay [1], the equilibrium dissociation constant (Kd) was determined as 36 µM.

In assay [1], `OC[C@H]1O[C@@H](O[C@H]2[C@H](O)[C@@H](O)C(O)O[C@@H]2CO)[C@H](O)[C@@H](O)[C@H]1O` (mixture of isomers) [Lactose, lactose] had a Kd of 88 µM.
